From US20140296147A1, “METHODS OF TREATING OR PREVENTING BLOOD LOSS DURING SURGERY USING THE SERINE PROTEASE INHIBITOR MDCO-2010” (THE MEDICINES COMPANY, priority 2011, published 2014)
Where two headings read alike, the source gives them in different places. Marks after values point to notes of the source that are not given here.

Assays:
[1] = Plasma pharmacokinetics of MDCO-2010 (LC/MS/MS, non-compartmental analysis) during CABG surgery; format: in vivo, human; conditions: for half-life / clearance / Vd / AUC(0-inf) / AUC(0-t) / Cmax: human, plasma
Experimental: Nominal blood sampling times for PK analysis were pre-dose (T1, pre-heparin) and at 10 min (pre-CBP), 15 min, 30 min, 60 min (or just before cessation of CPB), at the end of infusion (sternal closure), 15 min, 30 min, and at 4 hours post-end of infusion. Actual times were calculated for each patient and used for PK analysis.
MDCO-2010 was measured in plasma by liquid chromatography with tandem mass spectrometry (LC/MS/MS).
Plasma concentrations versus time data were analyzed by non-compartmental analysis using the program WinNonlin Professional Version 5.3 (Pharsight, Mountain View, Calif., USA). Actual sampling times were used for the evaluation.
The following parameters were determined: • AUC0-tlast=area under the MDCO-2010 concentration versus time curve from dosing time to the last time point with a value above the lower limit of quantitation (LLOQ), calculated by linear/log trapezoidal method which uses the linear trapezoidal rule up to Cmax and log trapezoidal rule for the remainder of the curve • AUC0-inf=area under the concentration-time curve from […]; calculated as AUC0-tlast+AUCexpol, where AUCexpol=Clast/λ • Css=steady-state plasma concentration calculated by taking the average of the concentrations in T4 to T7 • Cmax=maximum concentration, directly taken from measured values • t1/2=apparent terminal elimination half-life determined by log-linear regression • CL=total body clearance • Vss=volume of distribution at steady state
Descriptive statistics (number of subjects, arithmetic means, standard deviation (SD), geometric means, medians, minimum and maximum values) were determined for all PK variables, separately for each treatment. Values below the LLOQ of the assay were taken as zero for descriptive statistics of concentrations. For AUC calculations, values below LLOQ were taken as zero if no quantifiable concentrations were found before the value, as missing if quantifiable concentrations were found before and after the value, and also as missing if quantifiable concentrations were found before, but not after the value. Mean (±SD) concentration time plots were provided for each treatment group using linear and semi-logarithmic scale.
Dose proportionality was assessed by the power model using SAS Version 9 (SAS Institute Inc., Cary, N.C.).
The mean values for PK parameters per dose group (mean (±SD) pharmacokinetic variables of MDCO-2010 administered via IV infusion during CABG surgery based on non-compartmental analysis) are summarized in Table 3.

plasma kallikrein = plasma kallikrein (Homo sapiens, UniProt P03952); conditions: active-site directed, reversible, no cofactor; cited from earlier work
Chain of plasma kallikrein (P03952 391-638 limits assumed): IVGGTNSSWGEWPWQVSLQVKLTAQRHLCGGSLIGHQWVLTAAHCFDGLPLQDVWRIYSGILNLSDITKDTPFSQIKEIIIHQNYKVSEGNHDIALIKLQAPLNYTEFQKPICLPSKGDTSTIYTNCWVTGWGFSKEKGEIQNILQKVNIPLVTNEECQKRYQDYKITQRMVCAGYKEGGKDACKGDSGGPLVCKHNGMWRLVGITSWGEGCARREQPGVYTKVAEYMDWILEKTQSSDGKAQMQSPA
Chain of plasma kallikrein (P03952 20-390 partner limits assumed): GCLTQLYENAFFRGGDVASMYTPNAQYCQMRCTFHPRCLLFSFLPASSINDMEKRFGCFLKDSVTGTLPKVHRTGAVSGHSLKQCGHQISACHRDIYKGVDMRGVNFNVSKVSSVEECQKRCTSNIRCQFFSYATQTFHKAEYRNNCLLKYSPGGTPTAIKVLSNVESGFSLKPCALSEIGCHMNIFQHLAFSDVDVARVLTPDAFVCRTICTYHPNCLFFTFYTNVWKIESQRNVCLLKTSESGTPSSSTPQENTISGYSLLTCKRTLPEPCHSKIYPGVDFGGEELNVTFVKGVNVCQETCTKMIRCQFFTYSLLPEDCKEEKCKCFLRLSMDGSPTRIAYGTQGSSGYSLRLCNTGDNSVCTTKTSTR

coagulation Factor Xa = coagulation Factor Xa (Homo sapiens, UniProt P00742); conditions: cited from earlier work
Chain of coagulation Factor Xa (P00742 235-488 limits assumed): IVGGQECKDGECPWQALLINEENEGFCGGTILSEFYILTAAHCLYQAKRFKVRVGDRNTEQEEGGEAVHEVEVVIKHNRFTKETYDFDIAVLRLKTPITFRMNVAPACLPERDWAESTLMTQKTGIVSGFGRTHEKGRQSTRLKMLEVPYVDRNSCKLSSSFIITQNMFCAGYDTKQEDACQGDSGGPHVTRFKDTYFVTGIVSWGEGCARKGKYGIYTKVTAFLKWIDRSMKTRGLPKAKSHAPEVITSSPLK
Chain of coagulation Factor Xa (P00742 41-179 partner limits assumed): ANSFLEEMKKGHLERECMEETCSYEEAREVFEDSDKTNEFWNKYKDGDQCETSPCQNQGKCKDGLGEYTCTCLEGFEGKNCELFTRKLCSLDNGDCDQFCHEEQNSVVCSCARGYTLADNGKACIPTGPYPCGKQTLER

coagulation Factor XIa = coagulation Factor XIa (Homo sapiens, UniProt P03951); conditions: cited from earlier work
Chain of coagulation Factor XIa (P03951 388-625 limits assumed): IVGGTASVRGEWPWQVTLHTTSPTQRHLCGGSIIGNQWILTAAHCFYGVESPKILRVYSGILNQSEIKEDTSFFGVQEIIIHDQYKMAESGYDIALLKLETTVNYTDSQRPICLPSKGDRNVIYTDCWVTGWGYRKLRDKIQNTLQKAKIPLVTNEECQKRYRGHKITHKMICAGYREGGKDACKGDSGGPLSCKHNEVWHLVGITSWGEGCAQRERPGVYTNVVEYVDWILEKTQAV
Chain of coagulation Factor XIa (P03951 19-387 partner limits assumed): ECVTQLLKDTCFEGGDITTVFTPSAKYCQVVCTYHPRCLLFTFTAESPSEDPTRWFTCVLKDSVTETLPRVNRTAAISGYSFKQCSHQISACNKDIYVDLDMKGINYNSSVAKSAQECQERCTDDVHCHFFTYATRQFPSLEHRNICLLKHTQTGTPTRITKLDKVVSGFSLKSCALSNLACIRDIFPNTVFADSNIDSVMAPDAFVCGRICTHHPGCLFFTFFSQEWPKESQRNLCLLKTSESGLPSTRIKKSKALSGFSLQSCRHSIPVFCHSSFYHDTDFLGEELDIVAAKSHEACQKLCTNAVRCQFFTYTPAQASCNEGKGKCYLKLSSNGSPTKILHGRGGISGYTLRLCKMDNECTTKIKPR

[2] = test system: intrinsic and extrinsic pathways; assay: Anticoagulant effect: ACT, aPTT and ROTEM coagulation times in CABG patients; format: in vivo, human; conditions: five escalating doses, FIG. 3
Experimental: (§1) A Phase IIa, single-center, double-blind, placebo-controlled dose-escalation study was performed to investigate MDCO-2010 in patients undergoing elective, primary CABG (coronary artery bypass graft) surgery.
(§2) Initial heparin dosing (400 units/kg) and heparin maintenance was guided by the Hepcon HMS, with a kaolin ACT target of 480 seconds. Immediately after heparin bolus, study drug administration was initiated with a loading (bolus) dose followed by a continuous infusion of the maintenance dose via a central venous catheter until sternal closure. Patients were randomized in a 3:1 ratio to receive either one of five MDCO-2010 doses (continuous infusion of 12.5, 25, 62.5, 109 or 219 μg/kg/h maintenance dose; 24 patients) or saline as placebo (8 patients).

[3] = test system: patients undergoing elective, primary CABG (coronary artery bypass graft) surgery; assay: Phase IIa placebo-controlled dose-escalation study: postoperative blood loss and transfusions; format: in vivo, human
Experimental: as §1
After independent ethics committee approval and written informed consent, thirty two patients underwent CABG surgery (patient characteristics shown in Table 1) through midline sternotomy using minimized extracorporeal circulation (MECC, priming volume of 600 mL).
as §2, with “patients). […]” for “patients).”
loading dose 5 μg/kg, maintenance dose 12.5 μg/kg/h; pump prime 0.02 mg; 3 patients loading dose 11 μg/kg, maintenance dose 25 μg/kg/h; pump prime 0.04 mg; 3 patients loading dose 27 μg/kg, maintenance dose 62.5 μg/kg/h; pump prime 0.09 mg; 6 patients loading dose 47 μg/kg, maintenance dose 109 μg/kg/h; pump prime 0.18 mg; 6 patients loading dose 94 μg/kg, maintenance dose 219 μg/kg/h; pump prime 0.35 mg; 6 patients The loading dose was administered over a five minute period of time in a 10 mL infusion. The maintenance dose was administered as a continuous infusion with a constant flow rate of 23 mL/h for the duration of procedure. MDCO-2010 was also added to the pump prime fluid to the targeted plasma concentration. The pump prime was supplied as a 10 mL load.

plasmin = plasmin (Homo sapiens, UniProt P00747); conditions: active-site directed, reversible, no cofactor; cited from earlier work
Chain of plasmin (P00747 581-810 limits assumed): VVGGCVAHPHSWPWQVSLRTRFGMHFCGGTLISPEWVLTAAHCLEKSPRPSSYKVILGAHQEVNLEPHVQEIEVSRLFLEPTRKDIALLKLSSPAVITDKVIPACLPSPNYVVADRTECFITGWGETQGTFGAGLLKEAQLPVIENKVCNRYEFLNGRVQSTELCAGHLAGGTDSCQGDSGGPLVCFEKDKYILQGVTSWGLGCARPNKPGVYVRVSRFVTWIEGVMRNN
Chain of plasmin (P00747 97-580 partner limits assumed): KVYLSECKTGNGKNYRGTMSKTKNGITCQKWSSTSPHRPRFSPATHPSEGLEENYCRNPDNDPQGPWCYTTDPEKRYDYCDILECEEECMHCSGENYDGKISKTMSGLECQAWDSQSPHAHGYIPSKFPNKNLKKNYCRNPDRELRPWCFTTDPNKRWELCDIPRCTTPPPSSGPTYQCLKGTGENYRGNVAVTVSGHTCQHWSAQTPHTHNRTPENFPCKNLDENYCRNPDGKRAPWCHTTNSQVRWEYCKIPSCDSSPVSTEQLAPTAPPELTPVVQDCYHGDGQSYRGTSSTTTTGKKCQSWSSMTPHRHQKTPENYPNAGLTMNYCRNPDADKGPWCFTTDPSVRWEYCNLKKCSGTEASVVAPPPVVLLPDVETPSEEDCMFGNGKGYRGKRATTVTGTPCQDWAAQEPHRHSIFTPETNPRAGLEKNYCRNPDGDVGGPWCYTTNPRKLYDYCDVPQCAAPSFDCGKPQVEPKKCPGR

tPA-induced fibrinolysis = assay: Antifibrinolytic effect: D-dimer generation and tPA-induced lysis in CABG patients; format: in vivo, human; conditions: five escalating doses, FIG. 2
Experimental: as §1, §2

activated Protein C = activated Protein C (Homo sapiens, UniProt P04070); conditions: cited from earlier work
Chain of activated Protein C (P04070 212-461 limits assumed): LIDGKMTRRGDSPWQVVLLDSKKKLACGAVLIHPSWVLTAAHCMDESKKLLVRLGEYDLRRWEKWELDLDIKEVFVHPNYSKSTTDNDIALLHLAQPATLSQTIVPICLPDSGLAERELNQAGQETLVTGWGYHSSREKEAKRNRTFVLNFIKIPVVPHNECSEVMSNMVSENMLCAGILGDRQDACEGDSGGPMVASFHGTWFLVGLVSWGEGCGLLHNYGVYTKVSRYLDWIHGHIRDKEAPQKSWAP
Chain of activated Protein C (P04070 43-197 partner limits assumed): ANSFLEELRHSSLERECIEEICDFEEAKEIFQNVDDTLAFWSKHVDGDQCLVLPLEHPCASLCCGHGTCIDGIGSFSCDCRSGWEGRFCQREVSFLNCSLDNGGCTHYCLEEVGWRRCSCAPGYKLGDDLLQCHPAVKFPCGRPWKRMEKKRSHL

[4] = test system: patients undergoing elective, primary CABG (coronary artery bypass graft) surgery; assay: Safety markers and safety profile in CABG patients; format: in vivo, human
Experimental: as §1, §2

[5] = Cohort 1, mean dose 1.88 mg, IV infusion during CABG surgery, mean
[6] = Cohort 2, mean dose 4.99 mg, IV infusion during CABG surgery, mean
[7] = Cohort 3, mean dose 12.33 mg, IV infusion during CABG surgery, mean
[8] = Cohort 4, mean dose 19.57 mg, IV infusion during CABG surgery, mean
[9] = Cohort 5, mean dose 38.01 mg, IV infusion during CABG surgery, mean
[10] = Cohort 1 (N = 3): loading dose 5 μg/kg, maintenance dose 12.5 μg/kg/h
[11] = Cohort 2 (N = 3): loading dose 11 μg/kg, maintenance dose 25 μg/kg/h
[12] = Cohort 3 (N = 6): loading dose 27 μg/kg, maintenance dose 62.5 μg/kg/h
[13] = Cohort 4 (N = 6): loading dose 47 μg/kg, maintenance dose 109 μg/kg/h
[14] = Cohort 5 (N = 6): loading dose 94 μg/kg, maintenance dose 219 μg/kg/h, 1 patient received additional heparin without protamine reversal

N=C(N)c1ccc(CNC(=O)[C@H](Cc2cccc(CN)c2)NC(=O)[C@@H](CCCc2ccccc2)NS(=O)(=O)Cc2cccc(C(=O)O)c2)cc1 [MDCO-2010, 3-({1-[2-(3-Aminomethyl-phenyl)-1-(4-carbamimidoyl-benzylcarbamoyl)-ethylcarbamoyl]-4-phenyl-butylsulfamoyl}-methyl)-benzoic acid]
Css [1, 5]: 50.06 ng/mL | Css [1, 6]: 96.31 ng/mL | Css [1, 7]: 268.21 ng/mL | Css [1, 8]: 478.86 ng/mL | Css [1, 9]: 1009.17 ng/mL | plasma levels during the infusion ([1]; continuous infusion, FIG. 1): stable | mean MDCO-2010 plasma concentrations versus dose ([1]; five escalating doses, CABG patients): linear dose-proportional increase | half-life ([1]; intravenous, following an approximately 100 minute infusion period, all cohorts, read-out: mean value for the elimination half-life): ~1.38 h | half-life ([1]; intravenous, after end of infusion, CABG patients, read-out: terminal half-life (converted)): 1 h | half-life ([1]; intravenous, range over cohorts, read-out: elimination half-life, range): 1.02 to 1.7 h | clearance ([1]; intravenous, 1.88 mg total dose, read-out: Total body clearance): 220 ± 78 mL/min | clearance ([1]; intravenous, 38.01 mg total dose, read-out: Total body clearance): 153 ± 19 mL/min | Vd ([1]; intravenous, all dose levels, read-out: Volume of distribution (Vss), range): 12 to 17 L | half-life ([1]; iv, 1.88 mg, Cohort 1, mean dose 1.88 mg, IV infusion during CABG surgery, mean, read-out: t1/2): 1.02 h | half-life ([1]; iv, 4.99 mg, Cohort 2, mean dose 4.99 mg, IV infusion during CABG surgery, mean, read-out: t1/2): 1.21 h | half-life ([1]; iv, 12.33 mg, Cohort 3, mean dose 12.33 mg, IV infusion during CABG surgery, mean, read-out: t1/2): 1.26 h | half-life ([1]; iv, 19.57 mg, Cohort 4, mean dose 19.57 mg, IV infusion during CABG surgery, mean, read-out: t1/2): 1.74 h | half-life ([1]; iv, 38.01 mg, Cohort 5, mean dose 38.01 mg, IV infusion during CABG surgery, mean, read-out: t1/2): 1.72 h | AUC(0-inf) [1, 5]: 152 ng·h/mL | AUC(0-t) [1, 5]: 125 ng·h/mL | Cmax [1, 5]: 54.8 ng/mL | clearance ([1]; Cohort 1, mean dose 1.88 mg, IV infusion during CABG surgery, mean, read-out: Cl): 220 mL/min | Vd ([1]; Cohort 1, mean dose 1.88 mg, IV infusion during CABG surgery, mean, read-out: Vss): 12.7 L | AUC(0-inf) [1, 6]: 334 ng·h/mL | AUC(0-t) [1, 6]: 278 ng·h/mL | Cmax [1, 6]: 114 ng/mL | clearance ([1]; Cohort 2, mean dose 4.99 mg, IV infusion during CABG surgery, mean, read-out: Cl): 263 mL/min | Vd ([1]; Cohort 2, mean dose 4.99 mg, IV infusion during CABG surgery, mean, read-out: Vss): 16.1 L | AUC(0-inf) [1, 7]: 991 ng·h/mL | AUC(0-t) [1, 7]: 905 ng·h/mL | Cmax [1, 7]: 288 ng/mL | clearance ([1]; Cohort 3, mean dose 12.33 mg, IV infusion during CABG surgery, mean, read-out: Cl): 199 mL/min | Vd ([1]; Cohort 3, mean dose 12.33 mg, IV infusion during CABG surgery, mean, read-out: Vss): 12.3 L | AUC(0-inf) [1, 8]: 1880 ng·h/mL | AUC(0-t) [1, 8]: 1640 ng·h/mL | Cmax [1, 8]: 564 ng/mL | clearance ([1]; Cohort 4, mean dose 19.57 mg, IV infusion during CABG surgery, mean, read-out: Cl): 179 mL/min | Vd ([1]; Cohort 4, mean dose 19.57 mg, IV infusion during CABG surgery, mean, read-out: Vss): 17.4 L | AUC(0-inf) [1, 9]: 4060 ng·h/mL | AUC(0-t) [1, 9]: 3620 ng·h/mL | Cmax [1, 9]: 1150 ng/mL | clearance ([1]; Cohort 5, mean dose 38.01 mg, IV infusion during CABG surgery, mean, read-out: Cl): 153 mL/min | Vd ([1]; Cohort 5, mean dose 38.01 mg, IV infusion during CABG surgery, mean, read-out: Vss): 15.1 L | plasma levels abated ([1]; within 4 hours of the end of infusion): 85% | inhibition of plasma kallikrein (plasma kallikrein): potent inhibitor | inhibition of coagulation Factor Xa (coagulation Factor Xa): inhibits | inhibition of coagulation Factor XIa (coagulation Factor XIa): inhibits | ACT, aPTT and rotation thrombelastometry (ROTEM) coagulation times [2]: dose-related prolongation | 12 hour postoperative chest tube drainage, median ± SD [3, 10]: 450 ± 172 mL | Average number of transfusions per patient [3, 10]: 0 | Patients receiving transfusions [3, 10]: 0/3 | 12 hour postoperative chest tube drainage, median ± SD [3, 11]: 595 ± 125 mL | Average number of transfusions per patient [3, 11]: 0 | Patients receiving transfusions [3, 11]: 0/3 | Average number of transfusions per patient [3, 12]: 0.33 | Patients receiving transfusions [3, 12]: 1/6 | Average number of transfusions per patient [3, 13]: 0.17 | Patients receiving transfusions [3, 13]: 1/6 | Average number of transfusions per patient [3, 14]: 0.67† | Patients receiving transfusions [3, 14]: 2/6† | Chest tube drainage, incidence and volume of RBC transfusions vs. placebo ([3]; MDCO-2010 vs. placebo): significantly lower | inhibition of plasmin (plasmin): potent inhibitor | antifibrinolytic effect (suppression of D-dimer generation and inhibition of tPA-induced lysis) (tPA-induced fibrinolysis): dose-dependent antifibrinolytic effect | inhibition of activated Protein C (activated Protein C): inhibits | troponin T, CK-MB, prothrombin fragment F1+2, interleukins IL-6 and IL-10, ALAT, ASAT, serum creatinine vs. placebo ([4]; patients treated with MDCO-2010 vs. placebo, results not shown): No differences | safety profile of escalating doses ([4]; primary CABG surgery, first-in-patient study): acceptable safety profile
